Experimental data: the Kinase Knowledgebase extract (Sharma et al. 2016)

Key:
[1] = target: PIK3CA (human) (UniProt P42336); experiment: Inhibition of PIK3CA Kinase Activity
[2] = target: PIK3CD (Human) (UniProt O00329); experiment: Inhibition of PIK3CD Kinase Activity
[3] = target: PIK3CB (Human) (UniProt P42338); experiment: Inhibition of PIK3CB Kinase Activity
[4] = target: PIK3CG (human) (UniProt P48736); experiment: Inhibition of PIK3CG Kinase Activity

Measured: IC50

Sequence of PIK3CD (Human) (O00329 whole entry, looked up): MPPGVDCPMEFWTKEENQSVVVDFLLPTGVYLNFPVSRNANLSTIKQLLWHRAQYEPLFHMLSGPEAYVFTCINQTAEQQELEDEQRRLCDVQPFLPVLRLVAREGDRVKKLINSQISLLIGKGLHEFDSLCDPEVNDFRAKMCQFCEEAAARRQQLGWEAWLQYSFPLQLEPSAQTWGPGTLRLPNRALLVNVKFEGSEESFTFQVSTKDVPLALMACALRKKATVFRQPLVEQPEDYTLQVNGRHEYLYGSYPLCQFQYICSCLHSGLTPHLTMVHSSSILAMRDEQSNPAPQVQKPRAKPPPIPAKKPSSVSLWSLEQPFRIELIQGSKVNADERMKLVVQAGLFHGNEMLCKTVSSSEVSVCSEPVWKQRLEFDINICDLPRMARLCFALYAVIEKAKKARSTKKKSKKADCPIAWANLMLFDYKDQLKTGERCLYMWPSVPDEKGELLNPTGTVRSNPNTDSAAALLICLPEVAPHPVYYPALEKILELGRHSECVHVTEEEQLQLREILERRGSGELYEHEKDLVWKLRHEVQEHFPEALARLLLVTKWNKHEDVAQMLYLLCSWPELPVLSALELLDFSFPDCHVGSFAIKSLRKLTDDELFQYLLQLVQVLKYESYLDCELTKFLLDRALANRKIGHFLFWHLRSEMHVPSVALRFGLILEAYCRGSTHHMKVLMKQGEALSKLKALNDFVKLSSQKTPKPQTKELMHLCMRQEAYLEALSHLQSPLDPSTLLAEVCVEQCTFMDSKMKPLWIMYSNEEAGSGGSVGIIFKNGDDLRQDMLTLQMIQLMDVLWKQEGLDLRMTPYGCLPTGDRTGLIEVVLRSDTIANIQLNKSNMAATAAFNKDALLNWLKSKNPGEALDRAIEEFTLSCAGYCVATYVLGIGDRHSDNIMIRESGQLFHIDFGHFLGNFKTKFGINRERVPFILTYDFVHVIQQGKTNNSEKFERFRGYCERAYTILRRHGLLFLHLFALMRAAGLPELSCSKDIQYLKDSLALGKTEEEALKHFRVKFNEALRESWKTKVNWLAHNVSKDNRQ
Sequence of PIK3CG (human) (P48736 whole entry, looked up): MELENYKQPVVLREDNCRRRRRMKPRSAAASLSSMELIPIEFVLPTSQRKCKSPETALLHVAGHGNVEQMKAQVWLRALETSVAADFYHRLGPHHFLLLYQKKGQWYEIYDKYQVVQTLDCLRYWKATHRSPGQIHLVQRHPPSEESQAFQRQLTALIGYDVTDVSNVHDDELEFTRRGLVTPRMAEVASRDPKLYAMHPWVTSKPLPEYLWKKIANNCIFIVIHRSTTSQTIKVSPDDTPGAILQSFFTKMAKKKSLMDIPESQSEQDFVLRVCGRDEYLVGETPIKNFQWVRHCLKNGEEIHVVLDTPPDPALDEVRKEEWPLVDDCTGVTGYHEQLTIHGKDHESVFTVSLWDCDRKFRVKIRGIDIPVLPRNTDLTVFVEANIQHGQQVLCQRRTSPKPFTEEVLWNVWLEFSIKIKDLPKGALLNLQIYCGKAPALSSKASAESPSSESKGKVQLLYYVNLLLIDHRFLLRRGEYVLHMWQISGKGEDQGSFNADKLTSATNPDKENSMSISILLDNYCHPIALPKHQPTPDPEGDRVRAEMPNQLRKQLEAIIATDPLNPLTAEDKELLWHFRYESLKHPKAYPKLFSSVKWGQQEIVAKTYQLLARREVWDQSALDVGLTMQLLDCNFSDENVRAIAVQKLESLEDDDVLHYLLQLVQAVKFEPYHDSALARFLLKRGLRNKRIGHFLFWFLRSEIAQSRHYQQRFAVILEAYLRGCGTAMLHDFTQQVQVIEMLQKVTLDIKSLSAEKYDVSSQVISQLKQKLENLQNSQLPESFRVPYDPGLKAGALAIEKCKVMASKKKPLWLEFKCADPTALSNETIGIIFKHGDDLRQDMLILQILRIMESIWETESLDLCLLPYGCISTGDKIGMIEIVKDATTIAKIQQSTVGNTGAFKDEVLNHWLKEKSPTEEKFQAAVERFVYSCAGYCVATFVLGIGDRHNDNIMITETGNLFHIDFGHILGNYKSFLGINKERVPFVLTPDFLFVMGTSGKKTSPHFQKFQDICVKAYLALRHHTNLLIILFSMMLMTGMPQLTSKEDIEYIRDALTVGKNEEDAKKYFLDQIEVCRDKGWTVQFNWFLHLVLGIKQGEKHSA
Sequence of PIK3CA (human) (P42336 whole entry, looked up): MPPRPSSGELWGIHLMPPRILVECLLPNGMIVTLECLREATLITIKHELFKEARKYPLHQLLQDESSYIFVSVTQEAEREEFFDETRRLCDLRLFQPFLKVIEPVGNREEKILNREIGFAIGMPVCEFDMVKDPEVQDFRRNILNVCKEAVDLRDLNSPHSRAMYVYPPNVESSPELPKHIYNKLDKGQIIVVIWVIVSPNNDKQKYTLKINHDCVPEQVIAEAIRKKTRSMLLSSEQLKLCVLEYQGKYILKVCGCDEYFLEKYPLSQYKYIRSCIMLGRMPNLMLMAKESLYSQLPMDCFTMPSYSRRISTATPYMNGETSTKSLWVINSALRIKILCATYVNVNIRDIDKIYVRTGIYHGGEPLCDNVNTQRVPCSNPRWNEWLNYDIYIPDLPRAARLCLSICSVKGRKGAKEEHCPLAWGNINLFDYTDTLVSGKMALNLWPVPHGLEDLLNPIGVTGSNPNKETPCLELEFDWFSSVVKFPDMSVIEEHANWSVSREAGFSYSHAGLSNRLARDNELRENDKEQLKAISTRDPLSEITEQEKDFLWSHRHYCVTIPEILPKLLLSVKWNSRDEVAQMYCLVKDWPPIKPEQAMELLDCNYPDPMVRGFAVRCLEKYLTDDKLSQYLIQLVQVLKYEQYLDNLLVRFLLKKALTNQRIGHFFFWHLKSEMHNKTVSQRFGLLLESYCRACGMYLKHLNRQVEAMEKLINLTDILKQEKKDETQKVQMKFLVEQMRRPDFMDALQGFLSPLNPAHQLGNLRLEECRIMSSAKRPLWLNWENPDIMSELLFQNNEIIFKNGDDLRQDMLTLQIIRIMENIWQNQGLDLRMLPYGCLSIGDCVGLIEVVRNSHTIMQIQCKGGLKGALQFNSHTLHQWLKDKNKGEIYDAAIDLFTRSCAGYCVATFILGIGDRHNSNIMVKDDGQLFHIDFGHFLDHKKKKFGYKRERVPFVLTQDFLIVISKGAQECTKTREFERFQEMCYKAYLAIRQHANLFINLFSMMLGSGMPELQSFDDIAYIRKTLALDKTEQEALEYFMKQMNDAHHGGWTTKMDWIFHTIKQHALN
Sequence of PIK3CB (Human) (P42338 whole entry, looked up): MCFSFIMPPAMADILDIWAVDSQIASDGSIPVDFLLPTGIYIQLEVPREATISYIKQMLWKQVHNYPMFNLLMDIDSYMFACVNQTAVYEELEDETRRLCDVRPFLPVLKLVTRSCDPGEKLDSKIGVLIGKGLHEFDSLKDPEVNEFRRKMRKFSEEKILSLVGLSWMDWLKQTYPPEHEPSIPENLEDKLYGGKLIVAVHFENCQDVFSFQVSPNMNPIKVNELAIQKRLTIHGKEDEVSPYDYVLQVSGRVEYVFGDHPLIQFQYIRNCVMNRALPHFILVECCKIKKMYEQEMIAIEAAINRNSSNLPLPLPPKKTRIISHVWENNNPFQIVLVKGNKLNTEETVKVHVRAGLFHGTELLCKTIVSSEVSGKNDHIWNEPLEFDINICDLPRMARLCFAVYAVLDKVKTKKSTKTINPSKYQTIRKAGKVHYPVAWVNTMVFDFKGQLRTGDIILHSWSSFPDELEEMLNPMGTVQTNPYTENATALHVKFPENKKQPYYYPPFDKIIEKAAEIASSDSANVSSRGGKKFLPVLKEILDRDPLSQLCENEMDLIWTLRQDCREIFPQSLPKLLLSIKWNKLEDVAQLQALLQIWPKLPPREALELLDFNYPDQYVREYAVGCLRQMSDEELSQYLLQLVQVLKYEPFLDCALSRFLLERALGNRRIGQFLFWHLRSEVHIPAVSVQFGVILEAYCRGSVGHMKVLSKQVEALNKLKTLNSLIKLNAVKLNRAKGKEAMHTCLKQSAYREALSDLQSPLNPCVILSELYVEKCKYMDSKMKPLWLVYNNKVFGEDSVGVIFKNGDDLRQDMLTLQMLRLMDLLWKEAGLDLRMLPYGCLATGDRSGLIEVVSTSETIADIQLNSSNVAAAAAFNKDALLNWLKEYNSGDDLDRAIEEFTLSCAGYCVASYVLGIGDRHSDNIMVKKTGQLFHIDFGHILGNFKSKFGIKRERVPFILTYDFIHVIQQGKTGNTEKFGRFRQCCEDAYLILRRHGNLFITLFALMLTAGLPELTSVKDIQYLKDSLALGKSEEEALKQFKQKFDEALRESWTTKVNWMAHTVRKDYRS

CC1(C)CC(=O)c2sc(nc2C1)N3CCOCC3C(=O)N4=CCCc5ccccc45
≤ 50 µM: all assays above

CC1(C)CC(=O)c2sc(N3CCOC[C@@H]3Cc3cccc(-c4cccc(F)c4)c3)nc2C1
≤ 50 µM: all assays above

CC1(C)CCc2nc(N3CCOCC3)sc2C1=O
≤ 50 µM: all assays above

ON=C1CCCc2nc(N3CCOCC3)sc21
≤ 50 µM: all assays above

CC1(C)CC(=O)c2sc(nc2C1)N3CCOCC3CN4=CCCc5ccccc45
≤ 50 µM: all assays above

COc1ccccc1-c1cccc(C[C@H]2COCCN2c2nc3c(s2)C(=O)CC(C)(C)C3)c1
≤ 50 µM: all assays above

CC1(C)CNC(=O)c2sc(N3CCOCC3Cc3cccc4ncccc34)nc2C1 (configuration not stated)
≤ 50 µM: all assays above

CC1(C)CC(=O)c2sc(N3CCOc4ccccc43)nc2C1
≤ 50 µM: all assays above

CC1(C)CCc2nc(N3CCOCC3)sc2C1=NO
≤ 50 µM: all assays above

O=C1CC(c2ccco2)Cc2nc(N3CCOCC3)sc21 (configuration not stated)
≤ 50 µM: all assays above

Cc1ccccc1-c1cccc(C[C@H]2COCCN2c2nc3c(s2)C(=O)CC(C)(C)C3)c1
≤ 50 µM: all assays above

CN(CC1COCCN1c1nc2c(s1)C(=O)CC(C)(C)C2)c1ccccc1 (configuration not stated)
≤ 50 µM: all assays above

CC1(C)CC(=O)c2sc(N3CCOC[C@@H]3Cc3cccc(-c4cc(Cl)ccc4Cl)c3)nc2C1
≤ 50 µM: all assays above

CC1(C)CC(=O)c2sc(N3CCOCC3Cc3cccc(Br)n3)nc2C1 (configuration not stated)
≤ 50 µM: all assays above

CC1(C)CC(=O)c2sc(N3CCOCC3CNS(=O)(=O)c3ccccc3)nc2C1 (configuration not stated)
≤ 50 µM: all assays above

CC(=O)c1ccc(-c2cccc(C[C@H]3COCCN3c3nc4c(s3)C(=O)CC(C)(C)C4)c2)cc1
≤ 50 µM: all assays above

CC1(C)CC(=O)c2sc(N3CCOCC3Cc3c[nH]c4ccccc34)nc2C1 (configuration not stated)
≤ 50 µM: all assays above

CC1(C)CC(=O)c2sc(N3CCOC[C@@H]3Cn3cnc4ccccc43)nc2C1
≤ 50 µM: all assays above

O=C1NCCCc2nc(N3CCOCC3)sc21
≤ 50 µM: all assays above

CC1(C)CC(=O)c2sc(N3CCOCC3Cc3cccc4cccnc34)nc2C1 (configuration not stated)
≤ 50 µM: all assays above

Cn1cc(CC2COCCN2c2nc3c(s2)C(=O)CC(C)(C)C3)c2ccccc21 (configuration not stated)
≤ 50 µM: all assays above

CC1(C)CC(=O)c2sc(N3CCOC(CC(=O)NCc4csc5ccccc45)C3)nc2C1 (configuration not stated)
≤ 50 µM: all assays above

CC1(C)CC(=S)c2sc(N3CCOCC3)nc2C1
≤ 50 µM: all assays above

CC1(C)CC(=O)c2sc(N3CCOCC3Cc3cccc(-c4ccccc4)n3)nc2C1 (configuration not stated)
≤ 50 µM: all assays above

CC1(C)CC(=O)c2sc(N3CCOC[C@@H]3Cc3cccc(-c4cn(S(=O)(=O)c5ccccc5)c5ccccc45)c3)nc2C1
≤ 50 µM: all assays above

CC1(C)Cc2nc(N3CCOCC3)sc2C(O)C1 (configuration not stated)
≤ 50 µM: all assays above

CC1(C)CC(=NO)c2sc(N3CCOC[C@@H]3Cc3c[nH]c4ccccc34)nc2C1
≤ 50 µM: all assays above

CC1(C)CC(=O)c2sc(N3CCOCC3Cc3ccc(-c4ccccc4)cc3)nc2C1 (configuration not stated)
≤ 50 µM: all assays above

CC1(C)CC(=O)c2sc(N3CCOC[C@@H]3Cc3cccc(-c4ccccc4)c3)nc2C1
≤ 50 µM: all assays above

Cc1ccc2[nH]cc(CC3COCCN3c3nc4c(s3)C(=S)CC(C)(C)C4)c2c1 (configuration not stated)
≤ 50 µM: all assays above

CC1(C)CC(=O)c2sc(nc2C1)N3CCOCC3C(=O)N4=Cc5ccccc5CC4
≤ 50 µM: all assays above

CC1(C)CC(=O)c2sc(N3CCOCC3CCc3ccccc3)nc2C1 (configuration not stated)
≤ 50 µM: all assays above

CC1(C)CC(=O)c2sc(N3CCOC[C@@H]3Cc3cccc(-c4cc5ccccc5s4)c3)nc2C1
≤ 50 µM: all assays above

COc1ccc(-c2cccc(C[C@H]3COCCN3c3nc4c(s3)C(=O)CC(C)(C)C4)c2)cn1
≤ 50 µM: all assays above

O=C1CCCc2nc(N3CCOCC3Cc3cc4ccccc4s3)sc21 (configuration not stated)
≤ 50 µM: all assays above

CC1(C)CC(=O)c2sc(N3CCOC[C@@H]3Cc3cccc(-c4csc5ccccc45)c3)nc2C1
≤ 50 µM: all assays above

O=C1CC(c2ccccc2)Cc2nc(N3CCOCC3)sc21 (configuration not stated)
≤ 50 µM: all assays above

CC1(C)CC(=O)c2sc(N3CCOC[C@@H]3CC#Cc3ccccc3)nc2C1
≤ 50 µM: all assays above

Cc1ccc2c(c1)CCCN2C(=O)C1COCCN1c1nc2c(s1)C(=O)CC(C)(C)C2 (configuration not stated)
≤ 50 µM: all assays above

CC1(C)CC(=O)c2sc(N3CCOC[C@@H]3Cc3cccc(-c4ccccc4Br)c3)nc2C1
≤ 50 µM: all assays above

CC(C)C1CC(=O)c2sc(N3CCOCC3)nc2C1 (configuration not stated)
≤ 50 µM: all assays above

CC1(C)CC(=O)c2sc(N3CCOC[C@@H]3Cc3cccc(-c4cccc(N)c4)c3)nc2C1
≤ 50 µM: all assays above

Cn1cc(-c2cccc(C[C@H]3COCCN3c3nc4c(s3)C(=O)CC(C)(C)C4)c2)cn1
≤ 50 µM: all assays above

CC1(C)CC(=O)c2sc(N3CCOCC3CN3CCc4ccccc43)nc2C1 (configuration not stated)
≤ 50 µM: all assays above

CC1(C)CC(=O)c2sc(N3CCOCC3Cc3c[nH]c4ncccc34)nc2C1 (configuration not stated)
≤ 50 µM: all assays above

CC1(C)CC(=O)Nc2sc(N3CCOCC3)nc2C1
≤ 50 µM: all assays above

CC1(C)CC(=O)c2sc(N3CCOC(CNS(=O)(=O)c4ccccc4)C3)nc2C1 (configuration not stated)
≤ 50 µM: all assays above

CC1(C)CNC(=O)c2sc(N3CCOC[C@@H]3Cc3cccc(-c4cccnc4)c3)nc2C1
≤ 50 µM: all assays above

CC1(C)CNC(=O)c2sc(N3CCOCC3Cc3cncc4ccccc34)nc2C1 (configuration not stated)
≤ 50 µM: all assays above

CCCC1CC(=O)c2sc(N3CCOCC3)nc2C1 (configuration not stated)
≤ 50 µM: all assays above

CC1(C)CNC(=O)c2sc(N3CCOCC3)nc2C1
≤ 50 µM: all assays above

CC1(C)CC(=O)c2sc(N3CCOC[C@@H]3Cc3cccc(-c4cccc(OC(F)(F)F)c4)c3)nc2C1
≤ 50 µM: all assays above

CC1(C)CC(=O)c2sc(N3CCOCC3Cc3ccc(-c4cccnc4)cc3)nc2C1 (configuration not stated)
≤ 50 µM: all assays above

CC1(C)CC(=O)c2sc(N3CCOC[C@@H]3Cc3cccc(-c4ccccc4C(F)(F)F)c3)nc2C1
≤ 50 µM: all assays above

CC1(C)CC(=O)c2sc(N3CCOC[C@H]3Cc3c[nH]c4ccccc34)nc2C1
≤ 50 µM: all assays above

CC1(C)CC(=O)c2sc(N3CCOCC3Cc3ccc(Cl)cc3)nc2C1 (configuration not stated)
≤ 50 µM: all assays above

CC1(C)CC(=O)c2sc(N3CCOC[C@@H]3Cc3c[nH]c4ccc(O)cc34)nc2C1
≤ 50 µM: all assays above

CC1(C)CC(=O)c2sc(N3CCOCC3Cc3ccc4ccccc4c3)nc2C1 (configuration not stated)
≤ 50 µM: all assays above
